This note sets out measurements from patent US12331051B2 (priority 2021, dated 2025).

As a reminder, the EC50 is the concentration at which the effect is half-maximal. The low end stands for an effect from little substance, the high end for a need for much substance. For orientation: IC50 means the concentration that gives 50% inhibition. One may read the Emax as the size of the effect at its maximum, as opposed to the concentration needed.

Series [1] has as its system stress-naïve mice. Description: FST and OFT with volinanserin pre-treatment. The class given is in vivo, mouse. The method, then: The 5-HT2A receptor plays a key role in the function of many serotonergic psychedelics and their derivatives (Jaster et al., Psychopharmacology, 2022, 239, p1665-1677.). […] To further investigate the role of the 5-HT2A receptor in the “E559 polymorph” effects in these in vivo models, the open field test and forced swim test in mice was repeated as described in Example 14, with and without volinanserin, a selective 5-HT2A antagonist, treatment. Briefly, volnanserin (0.125 mg/kg) was administered (IP injection) 1 hour prior to the administration of the “E559 polymorph” (1 mg/kg, IP) to stress-naïve mice, and forced swim test was performed 24 hours later as described in Example 14. In brief, FIG. 26A represents immobility time in the forced swim test of female mice (n=12/group) pre-treated with vehicle or volinanserin, followed by either vehicle (saline) or “E559 polymorph” (1 mg/kg). […] FIG. 26C represents distance travelled in the open field Measured 24 hours after treatment (as in FIG. 26A) in female mice (n=12). […] Horizontal lines in FIG. 26 represent the mean±standard error of the mean (S.E.M.) and asterisks indicate statistical significances.

The test system of series [2] is primary cortical neurons (rats). Description: In vitro dendritogenesis assay with volinanserin pre-treatment. The class given is cell-based, rat. The method, then:
The 5-HT2A receptor plays a key role in the function of serotonergic psychedelics and their derivatives (Jaster, et al., Psychopharmacology, 2022, 239, p1665-1677.). […] The in vitro dendritogenesis assay was repeated in the presence or absence of a selective 5-HT2A antagonist volinanserin. In brief, FIG. 20A represents tracings of the cortical neurons (DIV 3) treated with volinanserin (Vol) at […]) followed by either vehicle or “E559 polymorph” (1 μM). Sholl radii are spaced 10 μm. […] FIG. 20C represents the total dendritic arbour length for neurons treated in FIG. 20A. In FIGS. 20B and 20C, violin plots represent the distribution of individual cells (n=15/treatment), while dots represent the averages per independent experiment (n=5/treatment). In this study primary cortical neurons (rats) were treated with volinanserin (0.1-1 μM), a selected 5-HT2A receptor antagonist, prior to the administration of the “polymorph HT compound” (1 μM 2-Br-LSD).

In series [3] the test system is mice. The experiment in a line: Tolerance after repeated dosing, HTR to DOI challenge. The class given is in vivo, mouse. The settings on record: IP once daily 7 days: DOI 10 mg/kg/day, E559 polymorph 3 mg/kg/day; DOI 1 mg/kg challenge 24 hours later. The method, then: To determine if repeated dosing of the “E559 polymorph” can induce tolerance in vivo, HTR experiment described in Examples 2 and 5 was repeated where mice received IP injections of vehicle, DOI (10 mg/kg/day), or the “E559 polymorph” (3 mg/kg/day; once daily for 7 consecutive days) and were then challenged with DOI (1 mg/kg) 24 hours later. Data shown in FIG. 22 are group means±standard deviation for the entire 60 minutes test session. Asterisks indicate statistical significances compared to the Vehicle control (Vehicle was saline).

Series [4] addresses T1, 5-HT2A receptor (Homo sapiens, UniProt P28223).
Series [5] has as its target T1, 5-HT2A receptor. The experiment in a line: 5-HT2A receptor internalization, NanoBit HiBit-fused 5-HT2A in HEK293T cells. The class given is cell-based. Also noted: expressed in transfected cells; host or cells: HEK293T. The method, then:
To assess the ability of the “E559 polymorph” to induce β-arrestin-mediated 5-HT2A receptor internalization in vitro, the loss of surface expression of 5-HT2A receptor was measured using a NanoBit N-terminal HiBit-fused 5-HT2A construct cloned in HEK293T cells (1:15 ratio 5-HT2A: β-arrestin2). In brief, cells were treated with serial dilution of test compounds for 1 hour or a specified time point.
A general note: With HiBiT, luminescence reflects the tagged protein that the partner subunit can reach.

A short description of series [6]: DVS hygroscopicity. The following applies: for DVS (hold at 75% RH) mass increase: crude material, 75% relative humidity, ~5 hr run time. The class given is physicochemical.
Series [7] deals with T2, 5-HT1E (Homo sapiens, UniProt P28566).
T2 construct: expressed in transfected cells; host or cells: HEK-293
Description: Functional assay (Arrestin). The class given is cell-based.

In series [8] the target is T3, Serotonin 2B receptor (5-HT2BR) (Homo sapiens, UniProt P41595).
T3 construct: expressed in transfected cells; host or cells: HEK-293
Description: Functional assay in HEK-293 cells (IP1). The class given is cell-based. On the procedure: (§1) Neuro-receptor binding and functional effects of the “E559 polymorph” was examined by analyzing binding affinity [Ki (nM)], functional agonist activity [EC50 (nM)], and functional antagonist activity [IC50 (nM)] against a panel of key receptors in neurophysiological disorders. Binding and functional assays were performed at “E559 polymorph” concentrations of 0.0003, 0.003, 0.01, 0.03, 0.1, 0.3, 1, and 10 μM. In binding assays, cell membrane homogenates, expressing each receptor target, were incubated with the corresponding radio-ligand in absence or presence of several concentration of the “E559 polymorph” compound. The measurement of binding affinity of the “E559 polymorph” is represented in TABLE XIII by Ki (nM) which was calculated as percent inhibition of the binding of a radioactively labeled reference ligand at each receptor. In functional assays the HEK-293 cells expressing each receptor target were suspended in buffer and distribute in microplates and incubated for 30 minutes at room temperature or 37° C. in the presence of buffer alone (basal control), the reference agonist or antagonist, or the “E559 polymorph. Following incubation, the cells were lysed and the appropriate fluorescent probe (Ca2+ flux, cAMP, or IP1) were added for 60 minutes to measure the fluorescence transfer at the appropriate wavelength using a microplate reader. The cellular agonist effect (EC50) was calculated as a percent of control response to a known reference agonist and the cellular antagonist effect (IC50) was calculated as a percent inhibition of control reference agonist response for each receptor.
(§2) The functional agonist activity [EC50 (nM), Emax], and functional antagonist activity [IC50 (nM)] of the 5R:8S stereoisomer of the “E559 polymorph” (5R:8S E558) was compared with the “E559 polymorph” (a 5R:8R stereoisomer) at selected serotonin receptors. The assays were performed as described in Example 6.

The target in series [9] is T4, 5-HT2A receptor (5-HT2AR) (Homo sapiens, UniProt P28223).
T4 construct: expressed in transfected cells; host or cells: HEK-293
The experiment in a line: Functional assay in HEK-293 cells (IP1). The class given is cell-based. The method, then: as §1, §2

Series [10] concerns the target 5-HT6 (Homo sapiens, UniProt P50406). The experiment in a line: Functional assay (cAMP). The class given is cell-based. Also noted: expressed in transfected cells; host or cells: HEK-293. The method, then: as §1, §2
For series [11], the target named is T5, 5-HT1F (Homo sapiens, UniProt P30939).
T5 construct: expressed in transfected cells; host or cells: HEK-293
T5 sequence (P30939 1-366): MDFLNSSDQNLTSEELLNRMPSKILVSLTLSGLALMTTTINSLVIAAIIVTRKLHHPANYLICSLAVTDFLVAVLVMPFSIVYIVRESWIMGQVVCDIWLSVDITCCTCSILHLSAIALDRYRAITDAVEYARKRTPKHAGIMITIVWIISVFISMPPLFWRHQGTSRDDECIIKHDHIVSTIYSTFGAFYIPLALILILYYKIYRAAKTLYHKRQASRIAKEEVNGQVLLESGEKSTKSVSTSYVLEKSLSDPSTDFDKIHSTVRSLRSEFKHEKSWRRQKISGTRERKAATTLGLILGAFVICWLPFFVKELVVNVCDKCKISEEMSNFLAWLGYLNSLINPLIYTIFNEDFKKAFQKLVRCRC
The experiment in a line: Functional assay (cAMP). The class given is cell-based. On the procedure: as §1, §2

For series [12], the target named is T6, Serotonin 1B receptor (5-HT1BR) (Homo sapiens, UniProt P28222).
T6 construct: expressed in transfected cells; host or cells: HEK-293
Description: Functional assay in HEK-293 cells (cAMP). The settings on record: Functional Assay (agonist) EC50 (nM), cAMP; ligand 5-HT. The class given is cell-based. On the procedure:
as §1, §2

Setting [13] is: cAMP, ligand 5-HT, read-out: Functional Assay (agonist) Emax.

T1 sequence (P28223 whole entry, the tested form may be a part): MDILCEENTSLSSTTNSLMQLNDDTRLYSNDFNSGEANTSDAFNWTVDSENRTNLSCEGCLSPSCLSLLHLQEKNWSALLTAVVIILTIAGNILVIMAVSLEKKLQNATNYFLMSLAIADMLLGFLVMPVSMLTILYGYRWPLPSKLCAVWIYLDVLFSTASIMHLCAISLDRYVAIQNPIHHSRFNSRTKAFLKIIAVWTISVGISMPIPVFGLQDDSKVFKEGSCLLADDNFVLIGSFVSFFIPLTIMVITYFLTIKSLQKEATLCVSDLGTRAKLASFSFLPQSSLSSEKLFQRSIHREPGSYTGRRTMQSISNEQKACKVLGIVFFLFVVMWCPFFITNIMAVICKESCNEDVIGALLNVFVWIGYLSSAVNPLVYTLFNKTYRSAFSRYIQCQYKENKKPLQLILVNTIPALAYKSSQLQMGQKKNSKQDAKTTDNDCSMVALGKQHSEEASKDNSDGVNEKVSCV
T4 sequence (P28223 whole entry): as the sequence (P28223 whole entry, the tested form may be a part) above
T3 sequence (P41595 whole entry): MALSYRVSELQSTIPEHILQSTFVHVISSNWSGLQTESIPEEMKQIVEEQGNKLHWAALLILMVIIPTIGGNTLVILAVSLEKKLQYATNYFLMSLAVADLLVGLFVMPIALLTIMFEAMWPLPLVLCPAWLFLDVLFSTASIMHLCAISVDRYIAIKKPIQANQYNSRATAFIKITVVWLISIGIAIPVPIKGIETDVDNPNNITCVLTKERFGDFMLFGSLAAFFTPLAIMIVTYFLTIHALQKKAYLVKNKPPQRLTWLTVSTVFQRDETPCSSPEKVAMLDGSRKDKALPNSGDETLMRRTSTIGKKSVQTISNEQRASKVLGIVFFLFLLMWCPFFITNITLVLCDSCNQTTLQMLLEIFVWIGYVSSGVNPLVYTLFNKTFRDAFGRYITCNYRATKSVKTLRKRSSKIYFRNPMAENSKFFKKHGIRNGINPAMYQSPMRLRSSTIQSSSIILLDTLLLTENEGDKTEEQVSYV
Sequence of 5-HT6 (P50406 whole entry): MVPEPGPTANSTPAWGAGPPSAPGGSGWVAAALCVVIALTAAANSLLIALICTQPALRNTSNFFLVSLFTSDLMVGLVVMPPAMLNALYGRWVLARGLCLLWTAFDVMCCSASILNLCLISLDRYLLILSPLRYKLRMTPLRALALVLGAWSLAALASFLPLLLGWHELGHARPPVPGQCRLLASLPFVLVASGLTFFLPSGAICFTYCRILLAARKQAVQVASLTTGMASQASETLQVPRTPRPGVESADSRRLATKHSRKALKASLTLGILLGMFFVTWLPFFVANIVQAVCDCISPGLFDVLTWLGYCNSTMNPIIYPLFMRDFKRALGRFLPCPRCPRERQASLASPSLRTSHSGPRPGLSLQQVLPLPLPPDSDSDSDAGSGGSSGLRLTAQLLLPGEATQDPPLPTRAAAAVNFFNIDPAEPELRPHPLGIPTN
T6 sequence (P28222 whole entry): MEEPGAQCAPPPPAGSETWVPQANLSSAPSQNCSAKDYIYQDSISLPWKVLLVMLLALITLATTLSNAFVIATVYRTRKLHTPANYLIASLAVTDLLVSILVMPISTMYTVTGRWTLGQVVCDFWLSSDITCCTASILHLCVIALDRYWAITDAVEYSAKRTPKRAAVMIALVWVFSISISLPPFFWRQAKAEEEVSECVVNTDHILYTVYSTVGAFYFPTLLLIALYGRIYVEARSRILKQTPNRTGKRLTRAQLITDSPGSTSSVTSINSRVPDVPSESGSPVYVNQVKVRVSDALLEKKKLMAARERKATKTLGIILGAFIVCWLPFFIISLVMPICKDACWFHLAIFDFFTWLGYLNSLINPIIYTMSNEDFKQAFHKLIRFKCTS
T2 sequence (P28566 whole entry): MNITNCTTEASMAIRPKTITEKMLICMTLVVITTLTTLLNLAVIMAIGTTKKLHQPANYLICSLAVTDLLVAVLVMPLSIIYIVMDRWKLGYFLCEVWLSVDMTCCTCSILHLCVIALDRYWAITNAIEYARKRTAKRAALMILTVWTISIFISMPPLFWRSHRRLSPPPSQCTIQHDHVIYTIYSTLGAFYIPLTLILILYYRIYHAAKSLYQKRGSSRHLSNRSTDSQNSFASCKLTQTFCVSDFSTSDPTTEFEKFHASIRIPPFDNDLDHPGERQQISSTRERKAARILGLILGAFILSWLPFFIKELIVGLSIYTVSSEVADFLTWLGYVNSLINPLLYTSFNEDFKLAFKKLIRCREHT

In the case of `COc1cccc([C@H](O)C2CCN(CCc3ccc(F)cc3)CC2)c1OC` [volinanserin], the “effect of volinanserin pre-treatment on E559 polymorph induced decrease in immobility in FST” value in series [1] (volinanserin 0.125 mg/kg IP 1 hour before E559 polymorph 1 mg/kg IP, female and male mice) was “blocked the decrease in immobility”. In [1] (volinanserin alone or with E559 polymorph, female or male mice), the “locomotion in the OFT” value is “did not affect locomotion in the OFT in female or male mice”. The “effect of volinanserin on E559 polymorph induced increase in total dendrite length” value in series [2] (E559 polymorph 1 μM) was “blocked the increase in total dendrite length”. Also, the “effect of volinanserin pre-treatment on E559 polymorph (1 μM) induced dendritic arbor complexity (Sholl intersections)” value in series [2] (every volinanserin concentration tested) is given as “blocked the effect”. Further, in [2] (volinanserin followed by vehicle), the “dendritic arbor complexity, volinanserin alone” value was “did not change any parameters linked to dendritic arbor complexity”.

Regarding `COc1cc(CC(C)N)c(OC)cc1I` (stereo not drawn) [DOI, 2,5-Dimethoxy-4-iodoamphetamine], the “tolerance (tachyphylaxis) after repeated dosing, HTR count on DOI challenge” value in series [3] is “induced a significant degree of tachyphylaxis/tolerance”. For the same molecule, in [4], the “β-Arrestin2 recruitment at the 5-HT2A receptor” value is given as “strong recruiters of β-Arrestin2”. The “internalization of the 5-HT2A receptor (loss of surface expression)” value in series [5] is reported as “potent internalization”.

For `CCN(CC)C(=O)[C@@H]1C=C2c3cccc4[nH]c(Br)c(c34)C[C@H]2N(C)C1` [E560, (5R, 8R)-2-Bromo-9,10-didehydro-N,N-diethyl-6-methylergoline-8-carboxamide hemi-L-tartrate], the “DVS (0-90-0 2 cycles) max water absorbed” value in series [6] (90% RH exposure, ~24 hr run time, listed as L-Tartrate) is “absorbed mad 12%”. Also, the results for the “DVS (hold at 75% RH) mass increase” value in series [6] (listed as L-Tartrate) and in series [6] (listed as L-tartrate salt) were 6.3% mass increase and “about 6.3%”, respectively.

With `NCCc1c[nH]c2ccc(O)cc12` [5-HT, serotonin], the “β-Arrestin2 recruitment at the 5-HT2A receptor” value in [4] is on record as “strong recruiters of β-Arrestin2”. Also, the “internalization of the 5-HT2A receptor (loss of surface expression)” value in [5] is listed as “potent internalization”.

Take `CCN(CC)C(=O)[C@H]1C=C2c3cccc4[nH]c(Br)c(c34)C[C@H]2N(C)C1` [E558, (5R, 8S)-2-Bromo-9,10-didehydro-N,N-diethyl-6-methylergoline-8-carboxamide]: the EC50 in series [7] was > 10 µM; in series [8], > 10 µM; in series [9], 0.2 µM; in series [10] it was 0.099 µM; in [11] it was 3.12 µM; in series [12] it was > 10000 nM. The IC50 in series [8] and in series [9] was > 10 µM each time. The Emax came out at 55% in series [9] (HEK293, IP1, ligand 5-HT, read-out: Functional Assay (agonist) Emax); 71% in [10] (setting [13]); 66.9% in series [11] (setting [13]).
